Results as given in ChEMBL document CHEMBL1201862, “PubChem BioAssay data set” (2004).
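Protocol summary: plate cells (96-well), add compound at 5 concentrations, incubate 48 h, interpolate endpoints linearly. The concentration for 50% growth inhibition is given as GI50.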 The source made the active and inactive calls. No stated cut-off is given here; in the data, active = GI50 up to about 1.1 µM and inactive = higher.

Experiments:
Assay in all cases: NCI tumour cell line growth inhibition, 48 h
[1] = test system: SF-539
[2] = test system: SR
[3] = test system: 786-0
[4] = test system: HL-60
[5] = test system: SF-295
[6] = test system: NCI-H522
[7] = test system: COLO 205
[8] = test system: A549
[9] = test system: MDA-N
[10] = test system: SF-268
[11] = test system: K562
[12] = test system: HT-29
[13] = test system: KM12
[14] = test system: EKVX
[15] = test system: OVCAR-8
[16] = test system: T47D
[17] = test system: NCI/ADR-RES
[18] = test system: MDA-MB-231
[19] = test system: SK-MEL-2
[20] = test system: MDA-MB-435

Measured: GI50

O=[N+]([O-])c1cccc(-c2cn3c(n2)Cc2ccccc2C3)c1
inactive: [1] 57.4 µM | [2] 51.4 µM | [3] > 100 µM | [4] > 100 µM | [5] 78.5 µM | [6] 34.4 µM | [7] 45.5 µM | [8] 64.1 µM | [9] 50.8 µM | [10] > 100 µM | [11] > 100 µM | [12] 12.3 µM | [13] 24.9 µM | [14] 90.2 µM | [15] 99.1 µM | [16] 17.1 µM | [17] > 100 µM | [18] 18.8 µM | [19] 34.9 µM | [20] 83.4 µM

C[C@@H]1[C@@H](C)C(c2ccccc2)O[Si]1(C(C)(C)C)C(C)(C)C (stereo not given in full)
inactive: [1] 17 µM | [2] 11.8 µM | [3] 16 µM | [4] > 10 µM | [5] 16.6 µM | [6] 15.1 µM | [7] 15.7 µM | [8] 16.6 µM | [9] 22.5 µM | [10] 25.2 µM | [11] 22.3 µM | [12] 15.2 µM | [13] 16.3 µM | [14] 17.1 µM | [15] 17.8 µM | [16] 19.1 µM | [17] 18.1 µM | [18] 16.9 µM | [19] 15.8 µM | [20] 25.6 µM

CC(C)C[S+]1C2=C(CC(C)(C)CC2=O)[N-]c2ccccc21 (stereo not given)
inactive: [1] > 100 µM | [2] 11.3 µM | [3] > 100 µM | [4] > 100 µM | [5] > 100 µM | [6] > 100 µM | [7] > 100 µM | [8] > 100 µM | [9] > 100 µM | [10] > 100 µM | [11] 71.9 µM | [12] > 100 µM | [13] > 100 µM | [14] > 100 µM | [15] > 100 µM | [16] > 100 µM | [17] > 100 µM | [18] > 100 µM | [19] > 100 µM | [20] > 100 µM

O=P(O)(O)CN1CCNCCN(CP(=O)(O)O)CCN(CP(=O)(O)O)CCNCC1
inactive: [1] > 100 µM | [2] > 100 µM | [3] > 100 µM | [4] 1.73 µM | [5] > 100 µM | [6] > 100 µM | [7] 44200 µM | [8] 42600 µM | [9] 26400 µM | [10] > 100000 µM | [11] > 100 µM | [12] 31.3 µM | [13] 55200 µM | [14] > 100 µM | [15] 83400 µM | [16] 48300 µM | [17] > 100 µM | [18] > 100 µM | [19] 99300 µM | [20] > 100 µM

CCC(=O)/C=C/c1ccccc1
inactive: [1] 53 µM | [2] 42.8 µM | [3] 46 µM | [4] 33.4 µM | [5] 73.5 µM | [6] > 100 µM | [7] > 100 µM | [8] > 100 µM | [9] 40.6 µM | [10] 94 µM | [11] 25.6 µM | [12] 43.7 µM | [13] 14.6 µM | [14] > 100 µM | [15] 51.3 µM | [16] > 100 µM | [17] 47.6 µM | [18] > 100 µM | [19] > 100 µM | [20] 33.8 µM

Nn1c(Sc2nc3ccccc3c(=O)n2N)nc2ccccc2c1=O
inactive: [1] 2.48 µM | [2] 2.02 µM | [3] 4.72 µM | [4] 2.51 µM | [5] 18.2 µM | [6] 1.69 µM | [7] 13.8 µM | [8] 14.2 µM | [9] 4.04 µM | [10] 8.49 µM | [11] 2.12 µM | [12] 3.4 µM | [13] 11.7 µM | [14] 17.5 µM | [15] 2.77 µM | [16] 5.09 µM | [17] 7.76 µM | [18] 7.93 µM | [19] 3.24 µM | [20] 6.22 µM

O=C(O)CO[C@@]12C#C/C=C\C#C[C@@H]3N(C(=O)Oc4ccccc4)c4ccccc4[C@]14O[C@@]34CCC2
inactive: [1] 31.4 µM | [2] 55.2 µM | [3] 26.9 µM | [4] 26.5 µM | [5] > 10 µM | [6] 33.5 µM | [7] 20 µM | [8] > 100 µM | [9] 14.9 µM | [10] 14.3 µM | [11] 23.7 µM | [12] 45.4 µM | [13] 17.6 µM | [14] > 100 µM | [15] 44.6 µM | [16] 10.3 µM | [17] 31.6 µM | [18] 12.9 µM | [19] 16.2 µM | [20] 1.53 µM

c1ccc2c(c1)-c1ccccc1C2N1CC2CCC(CC2)C1
inactive: [1] 24.1 µM | [2] 20.6 µM | [3] 35.1 µM | [4] 2.92 µM | [5] 19.3 µM | [6] 10.5 µM | [7] 20.5 µM | [8] 28.8 µM | [9] 31.9 µM | [10] 15.5 µM | [11] 17.3 µM | [12] 16.8 µM | [13] 19 µM | [14] 21.7 µM | [15] 30 µM | [16] 20.7 µM | [17] 15.5 µM | [18] 18.8 µM | [19] 16 µM | [20] 25.1 µM

CCCC(C)c1c(Cl)nc(Cl)nc1Cl (stereo not given)
inactive: [1] 5.73 µM | [2] 4.58 µM | [3] 4.79 µM | [4] 2.1 µM | [5] 18.5 µM | [6] 1.13 µM | [7] 4.4 µM | [8] 10.1 µM | [9] 4.72 µM | [10] 10.3 µM | [11] 3.37 µM | [12] 11.4 µM | [13] 2.47 µM | [14] 18.3 µM | [15] 19.1 µM | [16] 6.38 µM | [17] 33.4 µM | [18] 9.27 µM | [19] 23.9 µM | [20] 3.75 µM

Cc1cc(S(=O)(=O)Nc2nnc3c(Cl)cc(C(F)(F)F)cn23)c(S)cc1Cl
inactive: [1] 35.7 µM | [2] 66.8 µM | [3] 57.1 µM | [4] > 100 µM | [5] 71.8 µM | [6] 63.5 µM | [7] > 68.4 µM | [8] 51.6 µM | [9] 99.8 µM | [10] > 79.3 µM | [11] 66.2 µM | [12] 37.2 µM | [13] 39.3 µM | [14] 75 µM | [15] 50.4 µM | [16] 37.2 µM | [17] > 80.4 µM | [18] > 59.3 µM | [19] 48.4 µM | [20] 45.5 µM
